Source: patent US10611727B2, “1-[1-(benzoyl)-pyrrolidine-2-carbonyl]-pyrrolidine-2-carbonitrile derivatives” (UNIVERSITAT DE BARCELONA, priority 2012, dated 2020)
One block for each compound: values may come before it.

Key:
[1] = tested on: MK-801-induced memory impairment; experiment: Passive avoidance task, MK-801 cognition impairment model; assay type: in vivo, rodents (mice or rats); conditions: s.c. 35 min before shock session; MK-801 i.p. 15 min later; FIG. 2
Protocol: The new compounds were evaluated for their efficacy as cognition enhancers in a pharmacological model for cognitive impairment. The effects of the new compounds were evaluated in untreated and MK-801-treated rodents (mice or rats). MK-801 is a non-competitive antagonist of the N-Methyl-D-aspartate (NMDA) receptor which impairs animal performance in various learning and memory paradigms (Castellano C et al., Curr. Drug Targets 2001; 2:273-83; Riedel G et al., Behav. Brain Res. 2003; 140:1-47). MK-801 also produces various effects on rodent behavior, including deficits in sensory processing, hypermotility, stereotypy and ataxia. […]
For the evaluation of the passive avoidance task, a two-compartment box with a light compartment and a dark compartment of the same dimensions was used. […] In the evaluation session, the time which the animal takes to enter the dark compartment (in seconds) was measured, as a sign of memory retention of the shock received in the dark compartment during the previous session. […] The corresponding evaluated compound was injected s.c. 35 min before the shock session, followed 15 minutes later by i.p. injection of MK-801, or PBS in the case of the control, in the same doses and volume as described for the object recognition test.

[2] = Parallel artificial membrane permeability assay (PAMPA), porcine polar brain lipid extract; assay type: in vitro ADME; conditions: 200 μM, pH 7.4, 4 hours
Protocol: Parallel artificial membrane permeability assay (PAMPA) described in Kansy M et al., J. Med. Chem. 1998; […]:1007-10 was used to determine the capacity of compounds to cross the Blood-Brain Barrier (BBB) by passive diffusion (Di L et al., Eur. J. Med. Chem. 2003; 38(3):223-32). The effective permeability (Pe) of the compounds was measured at an initial concentration of 200 μM. The buffer solution was prepared from a commercial concentrated one following the manufacturer's instructions. pH was adjusted to 7.4 using a 0.5 M NaOH solution. A stock solution of new compound was prepared in DMSO and diluted with buffer solution to a final 200 μM concentration (0.5% DMSO content). The PAMPA sandwich was separated and each donor well was filled with 200 μL of the compound solution. […] After 4 hours, the contents of the acceptor and donor compartments were analyzed by HPLC: 150 μL of each well from the donor plate and 150 μL of each well from the acceptor plate were transferred to HPLC vials, injecting each sample into a reverse-phase C18 column (150 mm×4.6 mm×5 μm, 100 Å) (100 μL/injection from the acceptor wells, 10 μL/injection from the donor wells and for t0 references). […]
The effective permeability (Pe) after 4 hours was calculated using equation 2 and the percentage of transport was calculated using equation 3: […]

[3] = target: human prolyl oligopeptidase (Homo sapiens (Human), UniProt P48147); experiment: POP inhibition assay (Z-G-P-AMC substrate, fluorimetric); assay type: biochemical; conditions: 100 mM Na/K phosphate buffer pH 8.0, hPOP 20 to 60 nM
Protocol: hPOP expression: E. coli BL21 competent cells were transformed with pETM10 hPOP. To induce expression, a pre-culture of LB medium (50 mL) containing kanamycin (50 μg/mL) was inoculated with one colony and was grown overnight at 37° C., Next day, two cultures of LB medium (500 ml) were inoculated with the overnight culture (10 mL). The inoculated cultures were grown at 37° C. and 220 rpm until the OD595 was 1.2 (2.5-3 hours). […] The column was washed with suspension buffer until the absorbance at 280 nm returned to basal level. […] POP activity was checked in all fractions and positive ones were analyzed by SDS-PAGE and stained with Biosafe Comassie Stain G-250. […] Recombinant hPOP was quantified with the Bio-Rad Protein Assay with BSA as standard, Aliquots of the recombinant enzyme were prepared and immediately frozen with liquid nitrogen and stored at −80° C.
POP activity was determined following the method described by Toide et al (Toide K et al., J. Pharmacol. Exp. Ther. 1995; 274:1370-8), using Z-G-P-AMC (N-benzyloxycarbonyl-Gly-Pro-methylcoumarinyl-7-amide) as POP substrate. […]
After preincubation, Z-G-P-AMC (10 μl, 3 mM in 40% 1,4-dioxane) was added (3 μL 1.5 mM in 40% of 1,4-dioxane, in Conditions B), and the reaction was incubated for 1 hour at 37° C. The reaction was stopped by adding sodium acetate (150 μl, 1 M, pH 4) and the formation of AMC was measured fluorimetrically. […]

Sequence of human prolyl oligopeptidase (P48147 whole entry): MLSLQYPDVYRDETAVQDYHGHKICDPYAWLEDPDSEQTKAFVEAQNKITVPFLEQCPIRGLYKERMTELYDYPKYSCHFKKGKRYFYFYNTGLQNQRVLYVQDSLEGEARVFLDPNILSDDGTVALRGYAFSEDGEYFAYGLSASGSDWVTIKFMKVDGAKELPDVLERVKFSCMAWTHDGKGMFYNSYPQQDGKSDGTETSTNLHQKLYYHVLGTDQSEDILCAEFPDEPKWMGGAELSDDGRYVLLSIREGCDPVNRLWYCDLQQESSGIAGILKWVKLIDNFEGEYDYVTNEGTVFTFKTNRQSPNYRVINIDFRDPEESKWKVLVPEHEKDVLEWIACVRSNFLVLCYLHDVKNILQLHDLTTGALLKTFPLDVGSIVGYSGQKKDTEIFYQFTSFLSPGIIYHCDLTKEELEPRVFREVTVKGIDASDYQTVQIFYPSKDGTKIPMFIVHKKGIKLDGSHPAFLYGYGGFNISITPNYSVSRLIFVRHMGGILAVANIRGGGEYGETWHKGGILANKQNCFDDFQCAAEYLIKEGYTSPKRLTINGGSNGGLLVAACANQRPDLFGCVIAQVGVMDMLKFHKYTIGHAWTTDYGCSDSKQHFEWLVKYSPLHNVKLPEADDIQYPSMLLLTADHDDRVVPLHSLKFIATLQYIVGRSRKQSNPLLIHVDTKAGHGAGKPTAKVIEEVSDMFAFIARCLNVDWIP

SMILES: COc1cc(C(=O)N2CC(F)(F)C[C@H]2C(=O)N2CCC[C@H]2C#N)cc(OC)c1OCc1ccccc1 [Example 4, (S)-1-((2S)-1-(4-(benzyloxy)-3,5-dimethoxybenzoyl)-4,4-difluoropyrrolidine-2-carbonyl)pyrrolidine-2-carbonitrile]
Reversal of MK-801-induced memory impairment in the passive avoidance test [1]: able to reverse MK-801-induced memory Impairment

% T (percentage of transport) [2]: 4.3%
SMILES: COc1cc(C(=O)N2C[C@H](OC)C[C@H]2C(=O)N2CCC[C@H]2C#N)cc(OC)c1OCc1ccccc1 [Example 1, (S)-1-((2S,4R)-1-(4-(benzyloxy)-3,5-dimethoxybenzoyl)-4-methoxypyrrolidine-2-carbonyl)pyrrolidine-2-carbonitrile]

IC50 [3]: 336 nM
SMILES: COc1cc(C(=O)N2CC(F)(F)C[C@H]2C(=O)N2CCC[C@H]2C#N)cc(OCc2ccccc2)c1OCc1ccccc1 [Example 13, (S)-1-((2S)-1-(3,4-dibenzyloxy-5-methoxybenzoyl)-4,4-difluoropyrrolidine-2-carbonyl)pyrrolidine-2-carbonitrile]
